≈ marks a conversion by molar mass, not a printed value.
Experiments:
[1] = test system: Salmonella typhimurium AMES 98; test: "In vitro" MIC, Salmonella typhimurium AMES 98; assay type: cell-based; conditions: Salmonella enterica; Salmonella typhimurium AMES 98; dextrose agar, 37° C., 20 hours; read-out: "In vitro" MIC
Protocol: (§1) Antimicrobial pharmacological activity (G. L. Daquet and Y. A. Chabbect, Techniques en bacteriologie (Techniques in bacteriology), vol. 3, Flammarion Medecine-Sciences, Paris, 1972, and W. B. Hugo and A. D. Rusell, Pharmaceutical Microbiology, Blackwell Scientific Publications, London (1977).
Salmonella typhimurium AMES 98
(§2) A streak culture of each of the microorganisms is formed in tubes of antibiotics agar no. 1 and incubated for 20 hours at 37° C. A culture loop is then taken and a culture is formed in a tryptone-soya broth and incubated for 20 hours at 37° C. The resulting culture is diluted to 1/4 with Ringer's physiological solution to give a standardized suspension of 10^5 ufc/ml for each organism.
(§3) Starting from a solution of 1000 μg/ml in 0.1N NaOH, each product is diluted successively in dextrose agar (melted beforehand and kept at 50° C.) to give the following concentrations: 64-32-16-8-4-2-1-0.5-0.25-0.125 μg of derivative/ml of medium.
(§4) After this, each concentration of each product is divided up into Petri dishes of 10 cm diameter at a rate of 10 ml of medium per dish and using as many dishes as there are microorganisms to be tested.
(§5) Once the medium has cooled, the dishes are treated with the inoculations at a rate of 0.4 ml of inoculation per dish. They are spread out with a Drigalski loop and the supernatant is collected. The inoculated dishes are incubated at 37° C. for 20 hours.

Sarcina lutea ATCC 9341 = test: "In vitro" MIC, Sarcina lutea; assay type: cell-based; conditions: Micrococcus luteus, ATCC9341; Sarcina lutea ATCC 9341; dextrose agar, 37° C., 20 hours; read-out: "In vitro" MIC
Protocol: as §1, §2, §3, §4, §5

[2] = test system: Gram-negative microorganisms; test: "In vitro" antimicrobial activity compared with nalidixic acid, Gram-negative microorganisms; assay type: cell-based
Protocol: as §1, §2, §3, §4, §5

[3] = test system: Pseudomonas aeruginosa 25115; test: "In vitro" MIC, Pseudomonas aeruginosa 25115; assay type: cell-based; conditions: Pseudomonas aeruginosa 25115; dextrose agar, 37° C., 20 hours; read-out: "In vitro" MIC
Protocol: as §1
Pseudomonas aeruginosa 25115
as §2, §3, §4, §5

[4] = test system: Staphylococcus aureus ATCC 25178; test: "In vitro" MIC, Staphylococcus aureus ATCC 25178; assay type: cell-based; conditions: ATCC25178; Staphylococcus aureus ATCC 25178; dextrose agar, 37° C., 20 hours; read-out: "In vitro" MIC
Protocol: as §1
Staphylococcus aureus ATCC 25178
as §2, §3, §4, §5

[5] = test system: Serratia marcescens ATTC 13880; test: "In vitro" MIC, Serratia marcescens; assay type: cell-based; conditions: ATTC13880; Serratia marcescens ATTC 13880; dextrose agar, 37° C., 20 hours; read-out: "In vitro" MIC
Protocol: as §1
Serratia marcescens ATTC 13880
as §2, §3, §4, §5

Shigella flexnerii = test: "In vitro" MIC, Shigella flexnerii; assay type: cell-based; conditions: 20 h, read-out: "In vitro" MIC
Protocol: as §1, §2, §3, §4, §5

[6] = test system: Salmonella typhimurium AMES 100; test: "In vitro" MIC, Salmonella typhimurium AMES 100; assay type: cell-based; conditions: Salmonella enterica; Salmonella typhimurium AMES 100; dextrose agar, 37° C., 20 hours; read-out: "In vitro" MIC
Protocol: as §1
Salmonella typhimurium AMES 100
as §2, §3, §4, §5

[7] = test system: Pseudomonas aeruginosa ADSA 47; test: "In vitro" MIC, Pseudomonas aeruginosa ADSA 47; assay type: cell-based; conditions: ADSA47; Pseudomonas aeruginosa ADSA 47; dextrose agar, 37° C., 20 hours; read-out: "In vitro" MIC
Protocol: as §1
Pseudomonas aeruginosa ADSA 47
as §2, §3, §4, §5

Acute toxicity to mice = conditions: mouse, in vivo, ip, suspension in 5% gum arabic, mortality over 7 days
Protocol: The experimental animals used to determine this toxicity were albino mice of the C.F.L.P. strain and of both sexes, weighing between 19 and 25 grams. After an 18-hour fasting period with water "ad libitum", the derivatives forming the subject of the present invention are administered intraperitoneally as a suspension in 5% gum arabic. The volume of suspension administered was 0.4 ml/20 grams (20 ml/kg) in all cases, the concentration of the suspension being changed according to the dose administered.
One hour after administration of the derivatives, the animals are given a standard Panlab rat-mouse food. The mortality was observed over a period of 7 days. Differences in mortality between the sexes were not observed with any of the products.

[8] = test system: Enterobacter cloacae CHSP-20; test: "In vitro" MIC, Enterobacter cloacae; assay type: cell-based; conditions: CHSP20; Enterobacter cloacae CHSP-20; dextrose agar, 37° C., 20 hours; read-out: "In vitro" MIC
Protocol: as §1
Enterobacter cloacae CHSP-20
as §2, §3, §4, §5

[9] = test system: Micrococcus flavus ATCC 10240; test: "In vitro" MIC, Micrococcus flavus; assay type: cell-based; conditions: ATCC10240; Micrococcus flavus ATCC 10240; dextrose agar, 37° C., 20 hours; read-out: "In vitro" MIC
Protocol: as §1
Micrococcus flavus ATTC 10240
as §2, §3, §4, §5

Escherichia coli R-1513 = test: "In vitro" MIC, Escherichia coli R-1513; assay type: cell-based; conditions: R1513; Escherichia coli R-1513; dextrose agar, 37° C., 20 hours; read-out: "In vitro" MIC
Protocol: as §1, §2, §3, §4, §5

[10] = test system: Escherichia coli ATCC 10536; test: "In vitro" MIC, Escherichia coli ATCC 10536; assay type: cell-based; conditions: ATCC10536; Escherichia coli ATCC 10536; dextrose agar, 37° C., 20 hours; read-out: "In vitro" MIC
Protocol: as §1
Escherichia coli ATCC 10536
as §2, §3, §4, §5

[11] = test system: Staphylococcus aureus ATCC 5488/23; test: "In vitro" MIC, Staphylococcus aureus ATCC 5488/23; assay type: cell-based; conditions: ATCC5488; Staphylococcus aureus ATCC 5488/23; dextrose agar, 37° C., 20 hours; read-out: "In vitro" MIC
Protocol: as §1
Staphylococcus aureus ATCC 5488/23
as §2, §3, §4, §5

[12] = test system: Streptococcus faecalis ATCC 10541; test: "In vitro" MIC, Streptococcus faecalis; assay type: cell-based; conditions: Enterococcus faecalis, ATCC10541; Streptococcus faecalis ATCC 10541; dextrose agar, 37° C., 20 hours; read-out: "In vitro" MIC
Protocol: as §1
Streptococcus faecalis ATCC 10541
as §2, §3, §4, §5

[13] = test system: Proteus mirabilis ATCC 4675; test: "In vitro" MIC, Proteus mirabilis; assay type: cell-based; conditions: ATCC4675; Proteus mirabilis ATCC 4675; dextrose agar, 37° C., 20 hours; read-out: "In vitro" MIC
Protocol: as §1
Proteus mirabilis ATCC 4675
as §2, §3, §4, §5

Proteus morganii CHSP-16 = test: "In vitro" MIC, Proteus morganii; assay type: cell-based; conditions: Morganella morganii, CHSP16; Proteus morganii CHSP-16; dextrose agar, 37° C., 20 hours; read-out: "In vitro" MIC
Protocol: as §1, §2, §3, §4, §5

[14] = test system: Klebsiella pneumoniae ATCC 10031; test: "In vitro" MIC, Klebsiella pneumoniae; assay type: cell-based; conditions: ATCC10031; Klebsiella pneumoniae ATCC 10031; dextrose agar, 37° C., 20 hours; read-out: "In vitro" MIC
Protocol: as §1
Klebsiella pneumoniae ATCC 10031
as §2, §3, §4, §5

[15] = test system: Enterobacter aerogenes ATCC 15038; test: "In vitro" MIC, Enterobacter aerogenes; assay type: cell-based; conditions: Klebsiella aerogenes, ATCC15038; Enterobacter aerogenes ATCC 15038; dextrose agar, 37° C., 20 hours; read-out: "In vitro" MIC
Protocol: as §1
Enterobacter aerogenes ATCC 15038
as §2, §3, §4, §5

Gram-positive cocci = test: "In vitro" antimicrobial activity compared with nalidixic acid, Gram-positive cocci; assay type: cell-based
Protocol: as §1, §2, §3, §4, §5

[16] = test system: Citrobacter freundii ATCC 11606; test: "In vitro" MIC, Citrobacter freundii; assay type: cell-based; conditions: ATCC11606; Citrobacter freundii ATCC 11606; dextrose agar, 37° C., 20 hours; read-out: "In vitro" MIC
Protocol: as §1
Citrobacter freundii ATCC 11606
as §2, §3, §4, §5

[17] = test system: Bacillus subtilis ATCC 6633; test: "In vitro" MIC, Bacillus subtilis; assay type: cell-based; conditions: ATCC6633; Bacillus subtilis ATCC 6633; dextrose agar, 37° C., 20 hours; read-out: "In vitro" MIC
Protocol: as §1
Bacillus subtilis ATCC 6633
as §2, §3, §4, §5

| SMILES | MIC [1] | MIC (Sarcina lutea ATCC 9341) | activity compared with nalidixic acid [2] | MIC [3] | MIC [4] | MIC [5] | MIC (Shigella flexnerii) | MIC [6] | MIC [7] | LD50 at 168 h (Acute toxicity to mice) | MIC [8] | MIC [9] | MIC (Escherichia coli R-1513) | MIC [10] | MIC [11] | MIC [12] | MIC [13] | MIC (Proteus morganii CHSP-16) | MIC [14] | MIC [15] | other results |
| --- | --- | --- | --- | --- | --- | --- | --- | --- | --- | --- | --- | --- | --- | --- | --- | --- | --- | --- | --- | --- | --- |
| Cn1cc(C(=O)O)c(=O)c2cc(F)c(-n3cccc3)cc21 [Example 1, 6-fluoro-7-(pyrrol-1-yl)-1-methyl-4-oxo-1,4-dihydroquinoline-3-carboxylic acid] | 4 µg/mL (≈ 14 µM) | 16 µg/mL (≈ 55.9 µM) | activity of the same order as nalidixic acid | 16 µg/mL (≈ 55.9 µM) | 0.5 µg/mL (≈ 1.75 µM) | 16 µg/mL (≈ 55.9 µM) | 4 µg/mL (≈ 14 µM) | 8 µg/mL (≈ 27.9 µM) | ≥ 32 µg/mL | > 800 mg/kg | 2 µg/mL (≈ 6.99 µM) | 4 µg/mL (≈ 14 µM) | 4 µg/mL (≈ 14 µM) | 0.05 µg/mL (≈ 0.175 µM) | 0.5 µg/mL (≈ 1.75 µM) | 32 µg/mL (≈ 112 µM) | 4 µg/mL (≈ 14 µM) | 2 µg/mL (≈ 6.99 µM) | 1 µg/mL (≈ 3.49 µM) | 2 µg/mL (≈ 6.99 µM) | "in vitro" activity compared with nalidixic acid (Gram-positive cocci): greater activity towards Gram-positive cocci; MIC [16]: 2 µg/mL (≈ 6.99 µM); MIC [17]: 0.125 µg/mL (≈ 0.437 µM) |
| O=C(O)c1cn(CC2CC2)c2cc(-n3cccc3)c(F)cc2c1=O [Example 4, 6-fluoro-7-(pyrrol-1-yl)-1-cyclopropylmethyl-4-oxo-1,4-dihydroquinoline-3-carboxylic acid] | 0.25 µg/mL (≈ 0.766 µM) | 8 µg/mL (≈ 24.5 µM) | activity of the same order as nalidixic acid | ≥ 32 µg/mL | 1 µg/mL (≈ 3.06 µM) | 4 µg/mL (≈ 12.3 µM) | 4 µg/mL (≈ 12.3 µM) | 2 µg/mL (≈ 6.13 µM) | ≥ 32 µg/mL | > 1600 mg/kg | 4 µg/mL (≈ 12.3 µM) | 1 µg/mL (≈ 3.06 µM) | 8 µg/mL (≈ 24.5 µM) | 0.25 µg/mL (≈ 0.766 µM) | 2 µg/mL (≈ 6.13 µM) | 16 µg/mL (≈ 49 µM) | 32 µg/mL (≈ 98.1 µM) | 8 µg/mL (≈ 24.5 µM) | 1 µg/mL (≈ 3.06 µM) | 8 µg/mL (≈ 24.5 µM) | "in vitro" activity compared with nalidixic acid (Gram-positive cocci): greater activity towards Gram-positive cocci; MIC [16]: 16 µg/mL (≈ 49 µM); MIC [17]: 0.125 µg/mL (≈ 0.383 µM) |

— US4727080A, “1-substituted derivatives of 6-fluoro-7-(pyrrol-1-yl)-1,4-dihydro-4-oxoquinoline-3-carboxylic acid, their preparation and their application as drugs” (Provesan S.A., priority 1984, dated 1988)
